Assays:
hyperlipidemia rats [1] = assay: Effects on plasma lipid in hyperlipidemia rats (high-fat diet); format: in vivo, rat; details: 50 mg/kg intragastric, 4 weeks;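 also: rats kept on high-fat chow for 4 weeks before dosing, serum taken from abdominal aorta after a 12 h fast at end of treatment, controls given vehicle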
Method: (§2) After a week of accommodation, except control group (20 rat), all the rats (120 rats) were fed with high-fat laboratory chow.
(§3) After four weeks high-fat diet modeling, rats were treated with different drugs by intragastric administration. Control animals received an equal volume of vehicle.
(§4) At the end of 4 weeks drug treatment, animals were fasted for 12 hours before anesthetizing by intraperitoneal injection of pentobarbitale sodium (45 mg/kg), and anticoagulated by 100 U/kg heparin through caudal vein injection. Blood samples were collected from the abdominal aorta within 15 min, and serum was separated. Serum TC, TG, HDL-C, LDL-C, ALT, FFA were detected. Liver and the fat pad behind the belly were separated and weighed, the liver and retroperitoneal fat were weighed too. […] The left rats (10 rats each group) drug treatment was withdrawn while high-fat diet modeling continued. Two weeks later, blood sample was collected from the orbit, and serum TC, TG were detected.

hyperlipidemia rats [2] = assay: Effects on retroperitoneal fat weight of hyperlipidemic rats; format: in vivo, rat; details: hyperlipidemic rats, 50 mg/kg intragastric, 4 weeks
Text: (§1) Control animals received an equal volume of vehicle.

hyperlipidemia rats [3] = assay: Effects on hepatic SOD activity and MDA content of hyperlipidemia rats; format: in vivo, rat; details: 50 mg/kg intragastric, 4 weeks
Text: as §1

hyperlipidemia rats [4] = assay: Serum lipid of hyperlipidemia rats after withdrawal from drugs for 2 weeks; format: in vivo, rat; details: rats, 50 mg/kg; 2 weeks after drug withdrawal, high-fat diet continued
Method: as §2, §3, §4

hyperlipidemia hamsters [5] = assay: Effects on plasma lipid in hyperlipidemia hamsters (high-fat diet); format: in vivo, hamster; details: 50 mg/kg intragastric, 4 weeks;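 also: hamsters given high-fat chow for four weeks, then dosed by gavage, plasma lipids measured in abdominal aortic blood after a 12 h fast, compared with vehicle-treated controls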
Method: (§5) After a week of accommodation, except control group (n=12) all the hamsters (n=72) were fed with high-fat laboratory chow.
as §3
(§6) At the end of 4 weeks drug treatment, animals were fasted for 12 hours (10 of each group). The next day, they were anesthetized by intraperitoneal injection of pentobarbitale sodium (45 mg/kg). Blood samples were collected from the abdominal aorta within 15 min, and plasma was separated. Plasma TC, TG, HDL-C, LDL-C, ALT, FFA were detected. Liver and the retroperitoneal fat were separated and weighed, the liver and fat index were calculated. Liver SOD and MDA were detected by kit after homogenized. The left hamsters (10 each group) drug treatment was withdrawn while high-fat diet modeling continued. Two weeks later, blood sample was collected from the orbit and serum TC and TG were detected.

hyperlipidemia hamsters [6] = assay: Effects on hepatic SOD activity and MDA concentration in hyperlipidemic hamsters' livers; format: in vivo, hamster; details: 50 mg/kg intragastric, 4 weeks
Method: as §5, §3, §6

hyperlipidemia hamsters [7] = assay: Serum lipid level in hyperlipidemic hamsters after drug discontinuance (2 weeks); format: in vivo, hamster; details: hamsters, 50 mg/kg; 2 weeks after drug discontinuance, high-fat diet continued
Method: as §5, §3, §6

hyperlipidemia rats [8] = details: rat, in vivo, 50 mg/kg
Method: as §2, §3, §4

hyperlipidemia hamsters [9] = details: hamster, in vivo, 50 mg/kg
Method: as §5, §3, §6

hyperlipidemia rats [10] = assay: Effects on liver weight and serum ALT activity of hyperlipidemia rats; details: 50 mg/kg intragastric, 4 weeks
Method: as §2, §3, §4

CC(C)OC(=O)C(C)(C)Oc1ccc(C(=O)c2ccc(Cl)cc2)cc1 [Fenofibrate, reference compound]
FFA (hyperlipidemia rats [1]): 1.13 ± 0.30 mmol/L | HDL-C (hyperlipidemia rats [1]): 0.59 ± 0.17 mmol/L | HDL/LDL (hyperlipidemia rats [1]): 0.53 ± 0.16 | LDL-C (hyperlipidemia rats [1]): 1.16 ± 0.28 mmol/L | TC (hyperlipidemia rats [1]): 2.23 ± 0.53 mmol/L | TG (hyperlipidemia rats [1]): 0.70 ± 0.19 mmol/L | Fat weight (retroperitoneal fat) (hyperlipidemia rats [2]): 0.68 ± 0.16 g/100 g body weight | hepatic MDA (hyperlipidemia rats [3]): 9.35 ± 2.4 nmol/mg protein | hepatic SOD (hyperlipidemia rats [3]): 103.6 ± 27.9 U/g pr | TC (hyperlipidemia rats [4]): 2.08 ± 0.49 mmol/L | TG (hyperlipidemia rats [4]): 1.03 ± 0.19 mmol/L | HDL-C (hyperlipidemia hamsters [5]): 1.48 ± 0.40 mmol/L | HDL/LDL (hyperlipidemia hamsters [5]): 0.50 ± 0.13 | LDL-C (hyperlipidemia hamsters [5]): 3.04 ± 0.82 mmol/L | TC (hyperlipidemia hamsters [5]): 4.76 ± 1.58 mmol/L | TG (hyperlipidemia hamsters [5]): 3.80 ± 1.04 mmol/L | hepatic SOD (hyperlipidemia hamsters [6]): 94.0 ± 16.3 U/g pr | TC (hyperlipidemia hamsters [7]): 5.29 ± 2.13 mmol/L | TG (hyperlipidemia hamsters [7]): 4.16 ± 0.86 mmol/L | serum ALT (hyperlipidemia rats [8]): 40.3 ± 18.0 U/L | ALT (hyperlipidemia hamsters [9]): 97.3 ± 37.8 U/L | Liver weight (hyperlipidemia rats [10]; 'rat' in hamster Table 9): 4.08 ± 0.36 g/100 g body weight | Liver weight (hyperlipidemia rats [10]; hyperlipidemia rats): 4.08 ± 0.36 g/100 g body weight

Reference: patent US8435962B2, “Triacetyl-3-hydroxyphenyladenosine and its use for regulating blood fat” (Institute of Mataria Medica, Chinese Academy of Medical …, priority 2009, dated 2013)
